Data on three compounds can be found in ChEMBL document CHEMBL5104171 (Bioorg Med Chem Lett, 2022).

A short description of data set [1]: Plasma concentration in DBA/1 mouse at 15 mg/kg, po administered once daily for 6 days and measured at 2 hrs. It counts as ADME, organism-based. Particulars: time 6 day.
Data set [2] is described as follows: Permeability across apical to basolateral side in human Caco-2 cells. Particulars: read-out: permeability. It counts as ADME, cell-based. On the technique in general: Passage across Caco-2 layers is used to estimate intestinal permeability.
Data set [3] can be described thus: Aqueous solubility of compound at pH 7.4. It counts as physicochemical.
A short description of data set [4]: animal or person. Particulars: Mus musculus, DBA/1, 144 h, read-out: INH.
A short description of data set [5]: Metabolic stability in human liver microsomes assessed as compound remaining at 60 mins. It counts as ADME, Microsome. Particulars: read-out: Stability. In general terms: Microsomes from liver hold many membrane-bound enzymes, among them those of drug oxidation.
Data set [6] is described as follows: Plasma concentration in DBA/1 mouse at 15 mg/kg, po administered once daily for 6 days and measured at 4 hrs. It counts as ADME, organism-based. Particulars: time 6 day.
The nature of data set [7]: animal or person. The conditions noted are these: Mus musculus, DBA/1, 144 h, read-out: INH. The source holds these as a separate data set.
Data set [8] is described as follows: Plasma concentration in DBA/1 mouse at 15 mg/kg, po administered once daily for 6 days and measured at 12 hrs. In kind it is ADME, organism-based. The conditions noted are these: time 6 day.
The nature of data set [9]: animal or person. The conditions noted are these: Mus musculus, DBA/1, 144 h, read-out: INH. This is another data set of the same source.
Data set [10] is described as follows: animal or person. The conditions noted are these: Mus musculus, DBA/1, 144 h, read-out: INH. The source holds these as a separate data set.
Data set [11] can be described thus: Metabolic stability in mouse liver microsomes assessed as compound remaining at 60 mins. It counts as ADME, Microsome. The conditions noted are these: read-out: Stability.
Data set [12] can be described thus: animal or person. Particulars: Mus musculus, DBA/1, 144 h, read-out: INH. This is another data set of the same source.
Data set [13] can be described thus: Plasma concentration in DBA/1 mouse at 15 mg/kg, po administered once daily for 6 days and measured at 18 hrs. It counts as ADME, organism-based. Particulars: time 6 day.
A short description of data set [14]: Plasma concentration in DBA/1 mouse at 15 mg/kg, po administered once daily for 6 days and measured at 6 hrs. Particulars: time 6 day. It counts as ADME, organism-based.
Data set [15] in a line: Plasma protein binding in human. In kind it is ADME, cell-free. Particulars: read-out: PPB (converted).
Data set [16] can be described thus: animal or person. Particulars: Mus musculus, DBA/1, 144 h, read-out: INH. This is another data set of the same source.
The nature of data set [17]: animal or person. The conditions noted are these: Mus musculus, DBA/1, 144 h, read-out: INH. The source holds these as a separate data set.
The nature of data set [18]: Plasma protein binding in mouse. Particulars: read-out: PPB (converted). It counts as ADME, cell-free.
Data set [19] can be described thus: Plasma concentration in DBA/1 mouse at 15 mg/kg, po administered once daily for 6 days and measured at 8 hrs. Particulars: time 6 day. In kind it is ADME, organism-based.
The nature of data set [20]: Plasma concentration in DBA/1 mouse at 15 mg/kg, po administered once daily for 6 days and measured at 24 hrs. It counts as ADME, organism-based. The conditions noted are these: time 6 day.
In data set [21] the target is Hepatocyte growth factor receptor (Homo sapiens, UniProt P08581). In words: Inhibition of N-terminal His-Glu-TEV-tagged MET (unknown origin) (1050 to 1360 residues) measured by spectrophotometric analysis.
Data set [22] is described as follows: Inhibition of RANKL-induced human osteoclast precursor cells differentiation in presence of human M-CSF and measured by tartrate-resistant acid phosphatase activity assay. It counts as functional, cell-based.

≈ marks a conversion by molar mass, not a printed value.

Sequence of Hepatocyte growth factor receptor (P08581 whole entry, the tested form may be a part): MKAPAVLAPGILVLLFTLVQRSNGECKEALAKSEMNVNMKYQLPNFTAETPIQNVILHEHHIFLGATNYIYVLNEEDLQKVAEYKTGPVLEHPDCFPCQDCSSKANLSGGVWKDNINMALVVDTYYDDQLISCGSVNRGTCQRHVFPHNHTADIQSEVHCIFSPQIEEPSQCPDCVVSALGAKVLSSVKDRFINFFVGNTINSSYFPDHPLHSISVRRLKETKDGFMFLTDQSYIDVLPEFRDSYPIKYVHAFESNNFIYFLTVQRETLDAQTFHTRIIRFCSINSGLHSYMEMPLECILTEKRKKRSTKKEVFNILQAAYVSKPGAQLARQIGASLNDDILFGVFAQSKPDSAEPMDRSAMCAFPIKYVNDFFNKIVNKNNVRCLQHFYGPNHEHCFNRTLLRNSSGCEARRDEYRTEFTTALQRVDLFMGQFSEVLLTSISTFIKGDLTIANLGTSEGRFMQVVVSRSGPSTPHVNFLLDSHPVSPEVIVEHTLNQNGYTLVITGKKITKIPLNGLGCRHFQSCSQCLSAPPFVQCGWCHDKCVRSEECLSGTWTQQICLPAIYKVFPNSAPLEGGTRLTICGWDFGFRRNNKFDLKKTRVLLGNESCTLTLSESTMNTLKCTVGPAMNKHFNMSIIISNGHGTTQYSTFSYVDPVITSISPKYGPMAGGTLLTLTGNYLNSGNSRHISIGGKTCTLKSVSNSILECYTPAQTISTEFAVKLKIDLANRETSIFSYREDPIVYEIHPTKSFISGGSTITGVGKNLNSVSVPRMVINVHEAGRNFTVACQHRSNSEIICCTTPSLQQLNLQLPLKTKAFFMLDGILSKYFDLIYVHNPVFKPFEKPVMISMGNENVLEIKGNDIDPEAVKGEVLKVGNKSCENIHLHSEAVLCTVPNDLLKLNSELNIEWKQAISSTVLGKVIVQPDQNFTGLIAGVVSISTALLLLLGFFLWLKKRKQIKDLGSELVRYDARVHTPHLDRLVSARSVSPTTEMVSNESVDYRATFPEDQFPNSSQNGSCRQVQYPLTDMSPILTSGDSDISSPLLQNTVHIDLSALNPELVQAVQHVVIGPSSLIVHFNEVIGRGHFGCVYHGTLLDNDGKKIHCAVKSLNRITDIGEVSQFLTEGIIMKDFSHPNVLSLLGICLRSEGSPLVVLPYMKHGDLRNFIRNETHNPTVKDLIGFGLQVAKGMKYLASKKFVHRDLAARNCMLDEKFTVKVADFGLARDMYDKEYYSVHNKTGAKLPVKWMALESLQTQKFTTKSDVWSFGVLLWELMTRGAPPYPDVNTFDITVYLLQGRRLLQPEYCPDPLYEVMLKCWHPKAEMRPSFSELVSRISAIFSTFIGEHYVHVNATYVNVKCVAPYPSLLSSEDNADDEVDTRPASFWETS

For orientation: solubility means the concentration that dissolves in the medium under given conditions. On to `Cc1nc(NC(=O)NC(=O)C(C)(C)C)ccc1Oc1ccnc(-c2cnn(C)c2)c1`, for which the concentration at 144 h is 2.25 µg/mL in data set [1]; 1.85 µg/mL in data set [6]; 0.163 µg/mL in [8]; 0.125 µg/mL in data set [13]; 1.43 µg/mL in data set [14]; 1.35 µg/mL in data set [19]. Also, the concentration at 144 h in data set [20] is 0.086 µg/mL. For the same compound, in data set [2], the Papp A→B amounted to 139 nm/s. The compound also registered a solubility in data set [3] of 95.6 µM (≈ 39 µg/mL). Besides, the inhibition in vivo at 15 mg/kg is 94% in the data set “animal or person [4]”; 88% in “animal or person [7]”; -4% in the data set “animal or person [9]”; 14% in “animal or person [10]”; 89% in the data set “animal or person [12]”; 75% in the data set “animal or person [16]”. For the same compound, the inhibition in vivo at 15 mg/kg in the data set “animal or person [17]” worked out at 18%. Besides, the remaining at 1 h in data set [5] was found to be 100%; in data set [11] it was 91%. The fraction unbound in data set [15] was 0.023; in data set [18], 0.041.

As a reminder, the IC50 is the concentration that gives 50% inhibition. In turn, `FC(F)(F)c1ccc(CNc2ccc(Cc3c[nH]c4ncc(Cl)cc34)cn2)cn1` [PEXIDARTINIB] yielded an IC50 in data set [21] of more than 3300 nM.

`CN(C)CC(=O)N1CCC(c2ccc(NC(=O)c3nc(C#N)c[nH]3)c(C3=CCCCC3)c2)CC1`: the IC50 in [22] is 1.7 nM.
